Patent publication US11241579B2, “Monitoring and modulation of parasympathetic nervous system” (THE REGENTS OF THE UNIVERSITY OF CALIFORNIA, priority 2016, dated 2022)

Columns and labels:
[1] = system: intrinsic cardiac (IC) neurons; experiment: evoked action potentials of intrinsic cardiac neurons after local drug application (intracellular recording); assay type: cell-based, guinea pig; settings: 10^-3 M, 1- to 2-s local pressure ejection; across all groups (control, PO, PO+RCV, PO+LCV)
Description: Intracellular voltage recordings from IC neurons derived from explanted IC ganglia placed in 35-37° C. Krebs-Ringer solution were obtained by impaling cells with 3 M KCl-filled glass micropipettes (40- to 80-Me resistance) using an Axoclamp 2B amplifier (Molecular Devices). Data were collected, digitized, and analyzed using pClamp 10.2 (Molecular Devices). Individual neurons were used for data analysis if their resting membrane potential (RMP) was −40 mV or less and produced action potentials (APs) with an overshoot of >20 mV. Input resistance was determined using 0.1- and 0.2-nA pulses (500 ms). Neuronal soma excitability was monitored by observing the response to a series of long depolarizing current pulses (0.1-0.6 nA, 500 ms). The number of evoked APs vs. stimulus intensity was determined to assess relative changes in excitability. Afterhyperpolarization (AHP) durations were analyzed to determine the time to reach 50% of the amplitude from the peak of the AHP to the RMP.
For each cell, after characterization of the basic electrophysiological properties, induced changes in the number of evoked APs by depolarizing pulses were again assessed immediately following a 1- to 2-s application of NE (10^-3 M; Sigma) or bethanechol (a muscarinic agonist, 10^-3 M; Sigma). […]

[2] = system: MNS-induced AF; settings: cited from earlier work; for effect on MNS-induced AF: previous work

Compound | effect on MNS-induced AF [2] | other results
NC[C@H](O)c1ccc(O)c(O)c1 [NE, norepinephrine] | – | changes in IC neuronal sensitivity elicited by local application [1]: less than that elicited by bethanecol
CN1[C@@H]2CC[C@H]1C[C@@H](OC(=O)C(CO)c1ccccc1)C2 (stereo partly shown) [atropine] | eliminated | –
CC(C)(C)NC[C@H](O)COc1nsnc1N1CCOCC1 [timolol] | modified | –
C[N+](C)(C)CCCCCC[N+](C)(C)C [Hexamethonium] | – | number of AF responses to MNS stimulation ([2]; posttreatment, from 90% baseline): 10%
